Data taken from PMC5933782, “Molecular structures of cdc2-like kinases in complex with a new inhibitor chemotype” (PLoS ONE, 2018).

Experiments:
CLK1 = CLK1 (Mus musculus, UniProt P22518); assay: radiometric protein kinase assay
Description: Buffer A: 10 mM MgCl2, 1 mM EGTA, 1 mM DTT, 25 mM Tris-HCl pH 7.5, 50 μg heparin/mL. Buffer C: 60 mM β-glycerophosphate, 15 mM p-nitrophenylphosphate, 25 mM MOPS (pH 7.2), 15 mM EGTA, 15 mM MgCl2, 1 mM DTT, 1 mM sodium vanadate, 1 mM phenylphosphate.
Controls were performed with appropriate dilutions of DMSO. The GS-1, CKS, CDK7/9 tide and RS peptide substrates were obtained from Proteogenix (Oberhausbergen, France).
CDK1/cyclin B (M phase starfish oocytes, native), CDK2/cyclin A and CDK5/p25 (human, recombinant) were prepared as previously described [33]. […] ATP (3,000 Ci/mmol; 10 mCi/mL) in a final volume of 30 μL. After 30 min incubation at 30°C, the reaction was stopped by harvesting onto P81 phosphocellulose supernatant (Whatman) using a FilterMate harvester (Packard) and washing in 1% phosphoric acid. Scintillation fluid was added and the radioactivity measured in a Packard counter.
All data points for construction of dose response curves were recorded in triplicate.

[1] = test system: HT-29 colon carcinoma cells; assay: crystal violet proliferation assay; assay type: cell-based; details: Homo sapiens, 72 h exposure, triplicate
Description: (§1) For experiments with RC-124 cells, microtiter plates had been pretreated in the following way: 30 μL of a sterilized gelatine solution (1.5% (m/V)) were added to each well of flat bottom 96-well plates, the plates were covered with their lids, incubated for 1h at 37°C, the excess solution was removed, the wells were washed with PBS 7.4 pH, and the new cell-culture medium was added.
(§2) The antiproliferative effects were determined according to a routinely used method. In short: a volume of 100 μL of HT-29 cells (2565 cells/mL), MDA-MB-231 cells (4120 cells/mL), MCF-7 cells (4840 cells/mL) or RC-124 cells (1460 cells/mL) was transferred into the wells of 96-well plates (note: for RC-124 pretreated plates were used, see above) and incubated at 37°C/5% CO2 for 72 h (MCF-7, MDA-MB-231, RC-124) or 48 h (HT-29). Stock solutions of 8c in DMSO were prepared and diluted with the respective cell culture medium to graded concentrations (final concentration of […]: 0.1% v/v). […] Results were calculated as the mean values of three independent experiments.

[2] = test system: MDA-MB-231 breast cancer cells; assay: crystal violet proliferation assay; assay type: cell-based; details: Homo sapiens, 96 h exposure, triplicate
Description: as §1, §2

[3] = test system: RC-124 healthy human kidney cells; assay: crystal violet proliferation assay; assay type: cell-based; details: 96 h exposure, triplicate
Description: as §1, §2

[4] = test system: MCF-7 breast carcinoma cells; assay: crystal violet proliferation assay; assay type: cell-based; details: Homo sapiens, MCF7, 96 h exposure, duplicate
Description: as §1, §2

CLK3 = CLK3 (Mus musculus, UniProt O35492); assay: radiometric protein kinase assay
CDK5/p25 = molecular target: T1, CDK5/p25 (Homo sapiens, UniProt Q00535); assay: radiometric protein kinase assay; assay type: biochemical; details: 15 μmol/L ATP
T1 construct: made in house

HOP-92 = assay: NCI cancer cell line screening; assay type: cell-based; details: Homo sapiens; HOP-92, Non-Small Cell Lung Cancer
Description: (§3) Being the most promising compound in terms of CLK1 inhibitory potency and selectivity, KuWal151 (8c) was tested in the National Cancer Institute cancer cell line screening on 57 tumor cell lines of different tissue origin [45]. With only a few exceptions, KuWal151 inhibited the growth of most cell lines in submicromolar concentrations. In Table 2 the cancer cell line inhibition data is listed with the expression rates of SPF45 and CLK1 as indicated in the Expression Atlas database (https://www.ebi.ac.uk/gxa/home). Apparently the cell lines with high levels of CLK1 encoding RNA are inhibited over average. […] However, the available data are not sufficient to construe a clear relationship between the expression levels of the putative target CLK1 and sensitivity of the cell lines against 8c. The same holds true for SPF45, an important substrate of CLK1 involved in splicing which is found to be overexpressed in many cancer cell lines. […] The lack of a straight relationship between CLK1 and/or SPF45 expression levels on the one hand and sensitivity against the CLK1 inhibitor 8c on the other hand may have various reasons, e.g. different uptake rates of the inhibitor by the cells or alternative intracellular targets. For verification of the results from the NCI screening, which is based on the in situ fixation of cells followed by staining with the protein-binding dye sulforhodamin B [47, 48], 8c was also tested on two cell lines of the NCI panel (HT-29 and MDA-MB-231) in a crystal violet assay.

MCF7 = assay: NCI cancer cell line screening; assay type: cell-based; details: Homo sapiens; MCF7, Breast Cancer
Description: as §3

NCI/ADR-RES = assay: NCI cancer cell line screening; assay type: cell-based; details: Homo sapiens, Ovarian Cancer
Description: as §3

SNB-75 = assay: NCI cancer cell line screening; assay type: cell-based; details: Homo sapiens; SNB-75, CNS Cancer
Description: as §3

HCT-15 = assay: NCI cancer cell line screening; assay type: cell-based; details: Homo sapiens; HCT-15, Colon Cancer
Description: as §3

SF-295 = assay: NCI cancer cell line screening; assay type: cell-based; details: Homo sapiens; SF-295, CNS Cancer
Description: as §3

T-47D = assay: NCI cancer cell line screening; assay type: cell-based; details: Homo sapiens, T47D, Breast Cancer
Description: as §3

786–0 = assay: NCI cancer cell line screening; assay type: cell-based; details: Homo sapiens; 786–0, Renal Cancer
Description: as §3

SK-OV-3 = assay: NCI cancer cell line screening; assay type: cell-based; details: Homo sapiens; SK-OV-3, Ovarian Cancer
Description: as §3

NCI-H23 = assay: NCI cancer cell line screening; assay type: cell-based; details: Homo sapiens; NCI-H23, Non-Small Cell Lung Cancer
Description: as §3

PC-3 = assay: NCI cancer cell line screening; assay type: cell-based; details: Homo sapiens; PC-3, Prostate Cancer
Description: as §3

KM12 = assay: NCI cancer cell line screening; assay type: cell-based; details: Homo sapiens; KM12, Colon Cancer
Description: as §3

MDA-MB-231/ATCC = assay: NCI cancer cell line screening; assay type: cell-based; details: Homo sapiens, Breast Cancer
Description: as §3

SF-268 = assay: NCI cancer cell line screening; assay type: cell-based; details: Homo sapiens; SF-268, CNS Cancer
Description: as §3

NCI-H522 = assay: NCI cancer cell line screening; assay type: cell-based; details: Homo sapiens; NCI-H522, Non-Small Cell Lung Cancer
Description: as §3

M14 = assay: NCI cancer cell line screening; assay type: cell-based; details: Homo sapiens; M14, Melanoma
Description: as §3

CCRF-CEM = assay: NCI cancer cell line screening; assay type: cell-based; details: Homo sapiens, Leukemia
Description: as §3

NCI-H226 = assay: NCI cancer cell line screening; assay type: cell-based; details: Homo sapiens; NCI-H226, Non-Small Cell Lung Cancer
Description: as §3

NCI-H322M = assay: NCI cancer cell line screening; assay type: cell-based; details: Homo sapiens, Non-Small Cell Lung Cancer
Description: as §3

HL-60(TB) = assay: NCI cancer cell line screening; assay type: cell-based; details: Homo sapiens, Leukemia
Description: as §3

ACHN = assay: NCI cancer cell line screening; assay type: cell-based; details: Homo sapiens, Renal Cancer
Description: as §3

MDA-MB-468 = assay: NCI cancer cell line screening; assay type: cell-based; details: Homo sapiens; MDA-MB-468, Breast Cancer
Description: as §3

UO-31 = assay: NCI cancer cell line screening; assay type: cell-based; details: Homo sapiens; UO-31, Renal Cancer
Description: as §3

T1 sequence (Q00535 whole entry): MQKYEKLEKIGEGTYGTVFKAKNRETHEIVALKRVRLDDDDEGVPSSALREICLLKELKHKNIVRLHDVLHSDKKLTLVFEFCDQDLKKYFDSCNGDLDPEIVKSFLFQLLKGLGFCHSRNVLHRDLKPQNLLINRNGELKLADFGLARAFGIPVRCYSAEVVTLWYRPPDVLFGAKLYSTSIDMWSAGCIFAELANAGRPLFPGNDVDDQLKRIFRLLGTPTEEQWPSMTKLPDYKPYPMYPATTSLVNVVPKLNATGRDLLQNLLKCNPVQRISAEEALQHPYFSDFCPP
T1 sequence (Q15078 99-307 partner limits assumed): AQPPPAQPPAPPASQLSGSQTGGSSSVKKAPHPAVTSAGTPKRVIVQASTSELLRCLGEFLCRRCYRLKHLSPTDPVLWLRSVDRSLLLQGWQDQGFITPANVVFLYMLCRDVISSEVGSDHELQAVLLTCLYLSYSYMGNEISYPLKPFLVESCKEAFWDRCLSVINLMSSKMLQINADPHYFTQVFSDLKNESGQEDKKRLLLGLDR
Sequence of CLK3 (O35492 whole entry): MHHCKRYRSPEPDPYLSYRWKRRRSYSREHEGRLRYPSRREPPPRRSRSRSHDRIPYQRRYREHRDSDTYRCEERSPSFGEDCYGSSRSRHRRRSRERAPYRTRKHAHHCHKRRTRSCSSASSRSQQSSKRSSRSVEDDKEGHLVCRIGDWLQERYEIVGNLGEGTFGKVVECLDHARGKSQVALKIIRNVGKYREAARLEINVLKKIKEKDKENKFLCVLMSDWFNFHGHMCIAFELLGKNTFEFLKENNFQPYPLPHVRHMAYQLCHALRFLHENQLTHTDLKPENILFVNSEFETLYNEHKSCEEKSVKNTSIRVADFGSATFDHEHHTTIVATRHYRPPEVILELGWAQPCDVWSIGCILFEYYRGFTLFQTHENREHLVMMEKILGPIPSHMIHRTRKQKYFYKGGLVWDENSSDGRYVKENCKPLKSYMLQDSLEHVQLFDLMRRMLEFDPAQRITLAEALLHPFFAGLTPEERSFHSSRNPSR
Sequence of CLK1 (P22518 whole entry): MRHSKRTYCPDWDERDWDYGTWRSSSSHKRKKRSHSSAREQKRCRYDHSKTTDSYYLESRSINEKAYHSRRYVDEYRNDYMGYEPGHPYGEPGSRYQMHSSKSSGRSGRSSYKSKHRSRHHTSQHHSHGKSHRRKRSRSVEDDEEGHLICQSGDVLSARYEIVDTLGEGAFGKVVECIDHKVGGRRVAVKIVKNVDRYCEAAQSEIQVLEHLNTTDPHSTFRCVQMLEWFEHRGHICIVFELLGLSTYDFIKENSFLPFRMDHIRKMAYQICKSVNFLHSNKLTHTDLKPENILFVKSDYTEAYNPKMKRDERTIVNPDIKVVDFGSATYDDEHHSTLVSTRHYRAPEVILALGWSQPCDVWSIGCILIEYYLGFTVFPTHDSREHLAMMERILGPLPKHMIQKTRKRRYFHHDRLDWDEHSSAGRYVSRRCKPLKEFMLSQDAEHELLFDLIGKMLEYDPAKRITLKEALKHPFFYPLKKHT

O=C1NCc2ccc3c(-c4cccc(Cl)c4)c[nH]c3c21 [8c, 3-(3-Chlorophenyl)-6,7-dihydropyrrolo[3,4-g]indol-8(1H)-one]
IC50 (CLK1): 88 nM
GI50 [1]: 120 ± 10 nM
GI50 [2]: 280 ± 50 nM
GI50 [3]: 440 ± 100 nM
GI50 [4]: 350 ± 160 nM
IC50 (CLK3): > 10000 nM
IC50 (CDK5/p25): > 10000 nM
GI50 (HOP-92): 5620 nM
GI50 (MCF7): 174 nM
GI50 (NCI/ADR-RES): 178 nM
GI50 (SNB-75): 151 nM
GI50 (HCT-15): 178 nM
GI50 (SF-295): 224 nM
GI50 (T-47D): 309 nM
GI50 (786–0): 275 nM
GI50 (SK-OV-3): 275 nM
GI50 (NCI-H23): 525 nM
GI50 (PC-3): 339 nM
GI50 (KM12): 209 nM
GI50 (MDA-MB-231/ATCC): 1380 nM
GI50 (SF-268): 437 nM
GI50 (NCI-H522): 158 nM
GI50 (M14): 132 nM
GI50 (CCRF-CEM): 178 nM
GI50 (NCI-H226): 28800 nM
GI50 (NCI-H322M): 2390 nM
GI50 (HL-60(TB)): 141 nM
GI50 (ACHN): 372 nM
GI50 (MDA-MB-468): 234 nM
GI50 (UO-31): 832 nM
